Test results from paper PMC6315749 (Marine Drugs, 2018).

Key:
rat α9α10 nAChR = conditions: cited from earlier work
[1] = target: Aplysia californica AChBP (Aplysia californica, UniProt Q8WSF8); assay: biochemical; format: binding
Aplysia californica AChBP, sequence (Q8WSF8 18-236 limits assumed): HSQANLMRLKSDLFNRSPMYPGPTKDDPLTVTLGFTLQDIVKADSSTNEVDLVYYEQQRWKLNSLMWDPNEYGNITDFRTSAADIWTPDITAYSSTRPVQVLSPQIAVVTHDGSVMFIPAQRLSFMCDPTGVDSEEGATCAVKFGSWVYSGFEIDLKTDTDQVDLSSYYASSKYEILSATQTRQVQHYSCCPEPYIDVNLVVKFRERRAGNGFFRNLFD

For Vc1.1, the “affinity for rat α9α10 nAChRs” value (rat α9α10 nAChR) is listed as “nanomolar”.
`N=C(N)NCCC[C@H](NC(=O)[C@@H]1CSSC[C@@H]2NC(=O)[C@@H](NC(=O)CN)CSSC[C@H](NC(=O)[C@H](CCCNC(=N)N)NC(=O)[C@@H]3CCCN3C(=O)[C@H](CC(=O)O)NC(=O)[C@H](CO)NC2=O)C(=O)N[C@@H](CCCNC(=N)N)C(=O)N[C@@H](Cc2ccc(O)cc2)C(=O)N[C@@H](CCCNC(=N)N)C(=O)N1)C(=O)O` [RgIA globular isomer] showed an IC50 [1] of 194 ± 14 nM.
With `N=C(N)NCCC[C@H](NC(=O)[C@@H]1CSSC[C@H](NC(=O)CN)C(=O)N[C@H]2CSSC[C@H](NC(=O)[C@H](CCCNC(=N)N)NC(=O)[C@@H]3CCCN3C(=O)[C@H](CC(=O)O)NC(=O)[C@H](CO)NC2=O)C(=O)N[C@@H](CCCNC(=N)N)C(=O)N[C@@H](Cc2ccc(O)cc2)C(=O)N[C@@H](CCCNC(=N)N)C(=O)N1)C(=O)O` [RgIA ribbon isomer] the IC50 [1] was 1000 ± 80 nM.
